# Measurements as given in patent publication US9655942B2, “Medical formulation for treating hypercholesterolemia” (priority 2012, dated 2017).
# Legend:
# [1] = tested on: patients suffering from increased low density lipoprotein (LDL) levels; test: Example 2: blood level effects (cholesterol, HDL, LDL, non-HDL, risk factor, triglycerides) after three months; assay type: in vivo, human; details: for HDL / LDL / Non-HDL cholesterol / Total cholesterol / Triglycerides: group value; for Risk factor: total cholesterol blood level divided by HDL blood level
# Protocol: Especially, the present invention relates to the present medical formulations for recuperation of vascular walls, lowering low density lipoprotein blood levels, lowering the viscosity of blood, lowering blood pressure, and/or increasing high density lipoprotein levels. Preferably, the present invention relates to the present medical formulation for reducing the risk factor in humans, or patients, at risk of hypercholesterolemia, wherein the risk factor is determined by the total cholesterol blood level divided by the HDL blood level.
# (§1) As control, group 1 of 5 patients suffering from increased low density lipoprotein (LDL) levels were treated for three months with a formulation comprising, as daily dose 11.40 mg extract of lovastatin.
# (§2) A group 2 of 14 patients suffering from increased low density lipoprotein (LDL) levels were treated for three months with a formulation comprising, as daily dose: • 4.80 mg bark extract of cinnamomum zeylanicum; • 24.20 mg fibre extract of Pinus pinaster; • 24.00 mg bark extract Saccharum officinarum; • 11.40 mg lovastatin; • 1.2 mg leave extract of Taraxacum officinale; • 16 mg leave extract of Camellia sinensis; • 20 mg nicotinamide; • 14 mg 50% alpha tocopherol; • 60 mg coenzyme Q10; • 37.80 mg fish oil comprising 19.2 wt % eicosapentaenoic acid and 12.9 wt % docosahexanoic acid; • 60.00 mg beta-glucan; and • 1 mg cholecalciferol.
# (§3) The above ingredients were divided in two capsules for daily intake. The capsules were composed of gelatin. One capsule was taken during breakfast; the other was taken during dinner.
# [2] = tested on: patients suffering from increased low density lipoprotein (LDL) levels; test: Example 2: blood pressure after three months; assay type: in vivo, human
# Protocol: as §1, §2, §3
smiles,measurement,setting,value
CC[C@H](C)C(=O)O[C@H]1C[C@@H](C)C=C2C=C[C@H](C)[C@H](CC[C@@H]3C[C@@H](O)CC(=O)O3)[C@H]21 [lovastatin],HDL Δ,[1]; change T = 0 to T = 3 months,-4.0 mg/dL
same,LDL Δ,[1]; change T = 0 to T = 3 months,-23.0 mg/dL
same,Non-HDL cholesterol Δ,[1]; change T = 0 to T = 3 months,-28.0 mg/dL
same,Risk factor Δ,[1]; change T = 0 to T = 3 months,-0.41
same,Total cholesterol Δ,[1]; change T = 0 to T = 3 months,-26.2 mg/dL
same,Triglycerides Δ,[1]; change T = 0 to T = 3 months,-19 mg/dL
same,HDL,[1]; T = 0 (before treatment),72.0 mg/dL
same,LDL,[1]; T = 0 (before treatment),96.2 mg/dL
same,Non-HDL cholesterol,[1]; T = 0 (before treatment),129.4 mg/dL
same,Total cholesterol,[1]; T = 0 (before treatment),201.4 mg/dL
same,Triglycerides,[1]; T = 0 (before treatment),165.8 mg/dL
same,HDL,[1]; T = 3 (three months treatment),68.0 mg/dL
same,LDL,[1]; T = 3 (three months treatment),73.2 mg/dL
same,Non-HDL cholesterol,[1]; T = 3 (three months treatment),101.4 mg/dL
same,Total cholesterol,[1]; T = 3 (three months treatment),175.2 mg/dL
same,Triglycerides,[1]; T = 3 (three months treatment),146.8 mg/dL
same,reduction of risk factor,"[1]; three months treatment, stated as size of reduction",0.41
same,Risk factor,[1]; T = 0 (before treatment),2.91
same,Risk factor,[1]; T = 3 (three months treatment),2.5
same,Diastolic,[2]; T = 0 (before treatment),79.2 mmHg
same,Systolic,[2]; T = 0 (before treatment),120.0 mmHg
same,Diastolic,[2]; T = 3 (three months treatment),79.1 mmHg
same,Systolic,[2]; T = 3 (three months treatment),130.0 mmHg
same,Diastolic Δ,[2]; change T = 0 to T = 3 months,−0.1 mmHg
